Data published in article doi:10.1101/2021.04.08.439011v1 (biorxiv, 2021).

Experiments:
PFPK5(P. falciparum) = PFPK5(P. falciparum) (Plasmodium falciparum, UniProt P61075); conditions: 0.1 µM; binder
[1] = molecular target: RSK3(Kin.Dom.1-N-terminal) (Homo sapiens, UniProt Q15349); conditions: 0.1 µM; binder
LTK = LTK (Homo sapiens, UniProt P29376); assay: biochemical; conditions: read-out: Percent Control
STK33 = STK33 (Homo sapiens, UniProt Q9BYT3); assay: biochemical; conditions: read-out: Percent Control
DYRK1B = DYRK1B (Homo sapiens, UniProt Q9Y463); assay: biochemical; conditions: read-out: Percent Control
[2] = molecular target: RSK1(Kin.Dom.1-N-terminal) (Homo sapiens, UniProt Q15418); conditions: 0.1 µM; binder
DAPK2 = DAPK2 (Homo sapiens, UniProt Q9UIK4); conditions: 1 µM; binder
TAOK1 = TAOK1 (Homo sapiens, UniProt Q7L7X3); conditions: 1 µM; binder
PIK3CA(H1047Y) = PIK3CA(H1047Y) (Homo sapiens, UniProt P42336, H1047Y); conditions: 1 µM; binder
ERK1 = ERK1 (Homo sapiens, UniProt P27361); conditions: 1 µM; binder
CASK = CASK (Homo sapiens, UniProt O14936); conditions: 1 µM; binder
PKNB (M. tuberculosis) = PKNB (M. tuberculosis) (Mycobacterium tuberculosis, UniProt P9WI81); conditions: 0.1 µM; binder
[3] = molecular target: TYK2(JH1domain-catalytic) (Homo sapiens, UniProt P29597); conditions: 0.1 µM; binder
[4] = molecular target: JAK1(JH2domain-pseudokinase) (Homo sapiens, UniProt P23458); conditions: 0.1 µM; binder
[5] = molecular target: RSK2(Kin.Dom.1-N-terminal) (Homo sapiens, UniProt P51812); conditions: 0.1 µM; binder
RSK2(Kin.Dom.1-N-terminal), sequence (P51812 whole entry): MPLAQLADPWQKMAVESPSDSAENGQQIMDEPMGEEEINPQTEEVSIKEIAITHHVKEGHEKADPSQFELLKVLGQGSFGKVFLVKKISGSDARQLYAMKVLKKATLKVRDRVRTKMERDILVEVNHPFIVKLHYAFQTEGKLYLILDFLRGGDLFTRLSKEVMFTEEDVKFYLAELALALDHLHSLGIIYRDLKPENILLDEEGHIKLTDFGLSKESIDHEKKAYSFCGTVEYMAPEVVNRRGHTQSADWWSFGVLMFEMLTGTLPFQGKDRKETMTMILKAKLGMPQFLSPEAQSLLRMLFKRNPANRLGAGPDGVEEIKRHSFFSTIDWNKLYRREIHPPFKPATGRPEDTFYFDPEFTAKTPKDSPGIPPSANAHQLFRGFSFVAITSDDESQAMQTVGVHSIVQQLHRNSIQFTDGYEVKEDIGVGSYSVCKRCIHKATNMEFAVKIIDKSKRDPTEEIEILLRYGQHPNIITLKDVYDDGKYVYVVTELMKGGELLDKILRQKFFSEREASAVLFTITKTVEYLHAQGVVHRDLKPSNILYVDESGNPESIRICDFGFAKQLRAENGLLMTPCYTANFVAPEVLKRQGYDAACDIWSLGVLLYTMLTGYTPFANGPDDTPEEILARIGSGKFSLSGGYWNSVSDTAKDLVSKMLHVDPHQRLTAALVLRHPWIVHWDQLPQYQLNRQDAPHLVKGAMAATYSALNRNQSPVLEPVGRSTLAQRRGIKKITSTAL

TAOK1, sequence (Q7L7X3 whole entry): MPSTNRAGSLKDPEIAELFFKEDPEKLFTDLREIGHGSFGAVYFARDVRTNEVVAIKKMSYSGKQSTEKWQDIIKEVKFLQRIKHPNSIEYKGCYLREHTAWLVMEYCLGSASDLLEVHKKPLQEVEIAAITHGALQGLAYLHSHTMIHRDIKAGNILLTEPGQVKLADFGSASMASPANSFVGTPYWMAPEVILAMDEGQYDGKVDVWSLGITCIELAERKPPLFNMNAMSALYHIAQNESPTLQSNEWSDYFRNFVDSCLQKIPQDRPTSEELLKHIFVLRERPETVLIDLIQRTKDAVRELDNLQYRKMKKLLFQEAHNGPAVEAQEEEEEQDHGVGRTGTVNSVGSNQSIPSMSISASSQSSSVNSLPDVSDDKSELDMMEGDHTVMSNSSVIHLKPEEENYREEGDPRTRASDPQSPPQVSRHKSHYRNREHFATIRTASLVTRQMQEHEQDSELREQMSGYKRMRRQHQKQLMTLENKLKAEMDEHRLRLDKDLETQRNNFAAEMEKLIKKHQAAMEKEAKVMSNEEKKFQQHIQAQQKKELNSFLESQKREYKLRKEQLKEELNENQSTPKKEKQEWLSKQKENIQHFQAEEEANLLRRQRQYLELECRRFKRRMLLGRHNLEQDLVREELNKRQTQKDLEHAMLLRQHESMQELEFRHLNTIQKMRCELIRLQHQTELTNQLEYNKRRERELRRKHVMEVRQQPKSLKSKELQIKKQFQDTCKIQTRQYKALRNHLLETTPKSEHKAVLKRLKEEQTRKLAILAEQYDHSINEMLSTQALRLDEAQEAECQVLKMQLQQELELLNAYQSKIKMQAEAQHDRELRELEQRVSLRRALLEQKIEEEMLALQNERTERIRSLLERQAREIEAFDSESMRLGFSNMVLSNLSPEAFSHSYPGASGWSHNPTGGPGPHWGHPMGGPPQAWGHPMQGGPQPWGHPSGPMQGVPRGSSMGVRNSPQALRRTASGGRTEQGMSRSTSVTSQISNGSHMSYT
PFPK5(P. falciparum), sequence (P61075 whole entry): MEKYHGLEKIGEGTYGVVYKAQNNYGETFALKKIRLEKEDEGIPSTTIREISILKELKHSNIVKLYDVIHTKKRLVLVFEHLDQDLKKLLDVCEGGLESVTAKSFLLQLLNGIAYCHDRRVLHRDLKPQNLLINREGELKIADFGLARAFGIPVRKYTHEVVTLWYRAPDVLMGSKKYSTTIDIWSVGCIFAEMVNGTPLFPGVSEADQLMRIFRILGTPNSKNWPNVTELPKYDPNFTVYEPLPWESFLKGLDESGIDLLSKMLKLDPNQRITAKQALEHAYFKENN
JAK1(JH2domain-pseudokinase), sequence (P23458 whole entry): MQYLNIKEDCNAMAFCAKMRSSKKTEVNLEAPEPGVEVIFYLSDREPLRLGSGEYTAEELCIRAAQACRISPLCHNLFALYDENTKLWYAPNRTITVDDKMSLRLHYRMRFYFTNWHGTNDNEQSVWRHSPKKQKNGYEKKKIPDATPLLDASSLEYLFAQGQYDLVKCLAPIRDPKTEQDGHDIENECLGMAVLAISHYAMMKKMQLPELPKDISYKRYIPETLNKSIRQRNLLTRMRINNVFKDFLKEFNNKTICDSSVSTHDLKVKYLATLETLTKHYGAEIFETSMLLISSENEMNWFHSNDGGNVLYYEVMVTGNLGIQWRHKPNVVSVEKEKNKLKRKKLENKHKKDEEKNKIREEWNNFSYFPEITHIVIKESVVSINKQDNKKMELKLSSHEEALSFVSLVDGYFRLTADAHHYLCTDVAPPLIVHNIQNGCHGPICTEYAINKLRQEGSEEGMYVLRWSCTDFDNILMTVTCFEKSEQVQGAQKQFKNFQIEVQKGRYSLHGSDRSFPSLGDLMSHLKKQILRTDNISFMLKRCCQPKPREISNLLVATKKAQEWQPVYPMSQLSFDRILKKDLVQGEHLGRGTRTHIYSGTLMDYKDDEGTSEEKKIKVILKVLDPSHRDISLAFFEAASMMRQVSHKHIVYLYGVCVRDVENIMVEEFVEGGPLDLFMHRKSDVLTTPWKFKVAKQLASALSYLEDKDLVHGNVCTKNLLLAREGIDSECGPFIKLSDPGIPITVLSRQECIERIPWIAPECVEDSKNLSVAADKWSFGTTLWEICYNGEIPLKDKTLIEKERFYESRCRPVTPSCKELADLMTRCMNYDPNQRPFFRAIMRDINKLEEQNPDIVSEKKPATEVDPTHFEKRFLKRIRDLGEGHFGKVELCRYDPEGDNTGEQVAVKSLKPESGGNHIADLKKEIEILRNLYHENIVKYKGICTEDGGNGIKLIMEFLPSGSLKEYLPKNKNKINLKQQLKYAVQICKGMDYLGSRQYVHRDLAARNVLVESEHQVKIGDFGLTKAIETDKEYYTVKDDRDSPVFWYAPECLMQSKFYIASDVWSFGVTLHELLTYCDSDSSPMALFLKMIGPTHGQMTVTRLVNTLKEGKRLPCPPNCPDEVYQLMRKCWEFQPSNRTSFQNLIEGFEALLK
PIK3CA(H1047Y), sequence (P42336 whole entry H1047Y): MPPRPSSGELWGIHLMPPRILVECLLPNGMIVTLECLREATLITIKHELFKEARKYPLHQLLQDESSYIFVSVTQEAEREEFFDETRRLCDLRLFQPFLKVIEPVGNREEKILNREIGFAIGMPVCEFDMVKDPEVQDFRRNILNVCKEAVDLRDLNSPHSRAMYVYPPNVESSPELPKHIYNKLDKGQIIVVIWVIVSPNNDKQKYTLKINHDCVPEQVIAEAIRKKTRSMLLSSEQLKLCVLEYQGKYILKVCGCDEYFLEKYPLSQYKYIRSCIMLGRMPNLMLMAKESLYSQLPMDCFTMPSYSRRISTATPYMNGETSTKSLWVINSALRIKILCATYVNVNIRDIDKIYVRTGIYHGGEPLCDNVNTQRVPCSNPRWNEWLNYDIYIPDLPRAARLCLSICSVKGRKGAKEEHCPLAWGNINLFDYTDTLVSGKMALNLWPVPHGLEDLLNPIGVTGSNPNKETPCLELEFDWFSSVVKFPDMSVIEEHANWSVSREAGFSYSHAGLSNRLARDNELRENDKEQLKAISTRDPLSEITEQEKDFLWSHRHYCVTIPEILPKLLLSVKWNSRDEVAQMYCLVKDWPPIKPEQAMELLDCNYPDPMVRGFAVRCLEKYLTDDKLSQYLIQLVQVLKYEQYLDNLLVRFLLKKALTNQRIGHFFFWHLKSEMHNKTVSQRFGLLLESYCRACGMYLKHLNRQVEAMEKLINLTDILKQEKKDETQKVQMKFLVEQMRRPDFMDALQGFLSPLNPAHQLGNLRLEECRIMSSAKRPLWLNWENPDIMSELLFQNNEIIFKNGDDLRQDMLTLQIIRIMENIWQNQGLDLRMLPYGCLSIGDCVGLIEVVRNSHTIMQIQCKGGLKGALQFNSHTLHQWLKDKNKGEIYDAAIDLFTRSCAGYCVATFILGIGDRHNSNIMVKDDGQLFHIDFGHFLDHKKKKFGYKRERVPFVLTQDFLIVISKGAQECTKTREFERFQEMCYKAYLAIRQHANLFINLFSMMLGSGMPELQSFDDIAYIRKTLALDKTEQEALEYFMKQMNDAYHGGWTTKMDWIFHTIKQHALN
DYRK1B, sequence (Q9Y463 whole entry): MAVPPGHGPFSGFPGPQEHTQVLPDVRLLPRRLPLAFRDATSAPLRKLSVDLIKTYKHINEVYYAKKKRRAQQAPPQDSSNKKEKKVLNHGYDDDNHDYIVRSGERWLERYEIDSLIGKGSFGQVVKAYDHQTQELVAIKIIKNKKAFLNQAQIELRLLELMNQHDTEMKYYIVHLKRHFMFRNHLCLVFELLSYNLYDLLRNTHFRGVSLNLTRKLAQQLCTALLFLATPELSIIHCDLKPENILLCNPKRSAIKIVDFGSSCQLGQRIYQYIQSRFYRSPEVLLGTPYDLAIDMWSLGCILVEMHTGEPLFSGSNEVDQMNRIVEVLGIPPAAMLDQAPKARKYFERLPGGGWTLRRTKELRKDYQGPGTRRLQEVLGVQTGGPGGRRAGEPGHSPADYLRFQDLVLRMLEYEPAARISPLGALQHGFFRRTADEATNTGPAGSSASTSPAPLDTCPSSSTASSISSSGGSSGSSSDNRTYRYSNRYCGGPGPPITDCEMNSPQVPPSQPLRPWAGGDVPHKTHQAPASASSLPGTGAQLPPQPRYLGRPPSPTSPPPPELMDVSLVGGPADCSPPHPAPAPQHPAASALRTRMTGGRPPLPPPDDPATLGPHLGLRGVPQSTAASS

CNc1ncc2cc(-c3ccc(-c4cccc(C)n4)cc3Cl)c(=O)n(C[C@H]3OC[C@H](N)CO3)c2n1 [compound 6, G-5555]
Percent Control (PFPK5(P. falciparum)): 90%
Percent Control [1]: 100%
remaining activity at 1 µM (LTK): 4.1%
remaining activity at 1 µM (STK33): 75%
remaining activity at 1 µM (DYRK1B): 49%
Percent Control [2]: 79%
Percent Control (DAPK2): 100%
Percent Control (TAOK1): 87%
Percent Control (PIK3CA(H1047Y)): 86%
Percent Control (ERK1): 74%
Percent Control (CASK): 100%
Percent Control (PKNB (M. tuberculosis)): 100%
Percent Control [3]: 94%
Percent Control [4]: 92%
Percent Control [5]: 94%
